Measured values from ChEMBL document CHEMBL5291721, “A preclinical secondary pharmacology resource illuminates target-adverse drug reaction associations of marketed drugs” (Nat Commun, 2023).

Tests used:
[1] = molecular target: T1, B1 bradykinin receptor (Homo sapiens, UniProt P46663)
T1 sequence (P46663 whole entry): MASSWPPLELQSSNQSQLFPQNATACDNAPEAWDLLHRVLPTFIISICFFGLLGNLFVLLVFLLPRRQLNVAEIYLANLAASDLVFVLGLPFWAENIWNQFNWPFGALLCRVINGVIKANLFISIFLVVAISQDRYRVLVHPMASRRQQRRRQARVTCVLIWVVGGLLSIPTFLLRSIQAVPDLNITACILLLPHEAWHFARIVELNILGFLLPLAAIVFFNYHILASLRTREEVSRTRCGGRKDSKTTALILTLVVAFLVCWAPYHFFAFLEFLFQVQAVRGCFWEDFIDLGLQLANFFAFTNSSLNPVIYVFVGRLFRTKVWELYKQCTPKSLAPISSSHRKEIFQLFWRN

[2] = molecular target: T2, Progesterone receptor (Homo sapiens, UniProt P06401)
T2 sequence (P06401 whole entry): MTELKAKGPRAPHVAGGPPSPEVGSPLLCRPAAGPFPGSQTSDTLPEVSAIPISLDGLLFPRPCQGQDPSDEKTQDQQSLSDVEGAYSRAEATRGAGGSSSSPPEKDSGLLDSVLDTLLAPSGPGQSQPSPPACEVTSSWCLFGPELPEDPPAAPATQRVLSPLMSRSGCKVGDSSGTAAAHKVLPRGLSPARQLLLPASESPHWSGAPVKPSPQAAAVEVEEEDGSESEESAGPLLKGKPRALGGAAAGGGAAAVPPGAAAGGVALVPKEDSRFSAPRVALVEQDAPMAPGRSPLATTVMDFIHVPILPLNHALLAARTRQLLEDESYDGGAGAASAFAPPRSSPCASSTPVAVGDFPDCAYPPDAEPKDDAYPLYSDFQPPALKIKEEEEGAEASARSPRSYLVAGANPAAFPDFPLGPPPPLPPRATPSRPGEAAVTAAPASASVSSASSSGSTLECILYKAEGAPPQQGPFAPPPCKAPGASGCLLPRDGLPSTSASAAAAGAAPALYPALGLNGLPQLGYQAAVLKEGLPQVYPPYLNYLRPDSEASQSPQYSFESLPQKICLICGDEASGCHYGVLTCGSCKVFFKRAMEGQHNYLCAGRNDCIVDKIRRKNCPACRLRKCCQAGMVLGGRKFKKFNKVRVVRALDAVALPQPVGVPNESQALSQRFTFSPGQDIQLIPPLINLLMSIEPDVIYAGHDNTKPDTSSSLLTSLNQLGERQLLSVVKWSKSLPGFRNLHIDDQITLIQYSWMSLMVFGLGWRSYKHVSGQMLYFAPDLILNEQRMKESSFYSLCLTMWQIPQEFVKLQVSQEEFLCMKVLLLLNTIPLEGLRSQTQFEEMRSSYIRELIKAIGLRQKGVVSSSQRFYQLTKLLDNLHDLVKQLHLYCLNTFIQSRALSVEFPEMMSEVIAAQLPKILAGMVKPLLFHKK

[3] = molecular target: Histamine H2 receptor (Homo sapiens, UniProt P25021)
Histamine H2 receptor, sequence (P25021 whole entry): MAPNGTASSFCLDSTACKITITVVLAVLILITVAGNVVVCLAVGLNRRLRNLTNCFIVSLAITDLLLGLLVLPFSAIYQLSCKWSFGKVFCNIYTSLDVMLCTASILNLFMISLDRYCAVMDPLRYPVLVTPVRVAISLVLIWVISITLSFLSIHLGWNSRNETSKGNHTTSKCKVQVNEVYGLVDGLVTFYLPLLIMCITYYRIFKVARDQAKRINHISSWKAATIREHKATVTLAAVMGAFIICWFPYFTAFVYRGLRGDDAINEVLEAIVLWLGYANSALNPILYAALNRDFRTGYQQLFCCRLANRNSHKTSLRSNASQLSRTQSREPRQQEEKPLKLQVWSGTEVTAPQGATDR

[4] = molecular target: Glucagon receptor (Homo sapiens, UniProt P47871)
Glucagon receptor, sequence (P47871 whole entry): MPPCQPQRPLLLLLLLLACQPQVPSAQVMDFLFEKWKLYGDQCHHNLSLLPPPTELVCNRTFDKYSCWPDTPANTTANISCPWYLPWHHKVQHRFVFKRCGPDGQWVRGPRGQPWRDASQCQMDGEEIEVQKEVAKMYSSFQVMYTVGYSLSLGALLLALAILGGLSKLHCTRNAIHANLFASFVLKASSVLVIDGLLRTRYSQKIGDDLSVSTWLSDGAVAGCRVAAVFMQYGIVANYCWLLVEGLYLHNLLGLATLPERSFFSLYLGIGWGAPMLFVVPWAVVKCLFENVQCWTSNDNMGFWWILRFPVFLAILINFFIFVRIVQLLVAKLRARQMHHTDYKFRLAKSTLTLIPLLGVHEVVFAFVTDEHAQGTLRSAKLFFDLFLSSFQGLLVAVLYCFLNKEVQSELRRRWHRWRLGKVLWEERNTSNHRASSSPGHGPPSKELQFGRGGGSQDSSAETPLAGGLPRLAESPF

[5] = molecular target: Neurotensin receptor type 1 (Homo sapiens, UniProt P30989)
Neurotensin receptor type 1, sequence (P30989 whole entry): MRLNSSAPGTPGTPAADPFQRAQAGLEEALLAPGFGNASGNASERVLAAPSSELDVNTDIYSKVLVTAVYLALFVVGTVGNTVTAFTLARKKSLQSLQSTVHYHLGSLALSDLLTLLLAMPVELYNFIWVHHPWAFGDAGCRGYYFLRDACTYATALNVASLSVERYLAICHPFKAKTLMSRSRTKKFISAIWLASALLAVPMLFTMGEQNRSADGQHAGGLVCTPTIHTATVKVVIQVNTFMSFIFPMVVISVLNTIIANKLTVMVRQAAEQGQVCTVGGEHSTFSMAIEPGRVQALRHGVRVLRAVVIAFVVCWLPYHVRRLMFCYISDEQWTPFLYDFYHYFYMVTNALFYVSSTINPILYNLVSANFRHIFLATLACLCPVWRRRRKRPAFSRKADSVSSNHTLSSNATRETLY

[6] = molecular target: T3, Neuropeptide Y receptor type 2 (Homo sapiens, UniProt P49146)
T3 sequence (P49146 whole entry): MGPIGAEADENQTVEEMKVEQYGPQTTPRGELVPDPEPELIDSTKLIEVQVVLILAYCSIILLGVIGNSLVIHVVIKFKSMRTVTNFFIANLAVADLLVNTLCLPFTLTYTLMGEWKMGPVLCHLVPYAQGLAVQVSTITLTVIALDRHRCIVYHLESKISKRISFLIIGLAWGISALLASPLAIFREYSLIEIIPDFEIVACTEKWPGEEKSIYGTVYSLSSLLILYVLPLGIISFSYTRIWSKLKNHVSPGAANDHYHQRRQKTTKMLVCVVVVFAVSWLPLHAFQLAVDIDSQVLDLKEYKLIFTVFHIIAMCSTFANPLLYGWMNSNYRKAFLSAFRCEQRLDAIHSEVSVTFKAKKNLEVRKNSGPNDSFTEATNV

[7] = molecular target: T4, Alpha-1A adrenergic receptor (Homo sapiens, UniProt P35348)
T4 sequence (P35348 whole entry): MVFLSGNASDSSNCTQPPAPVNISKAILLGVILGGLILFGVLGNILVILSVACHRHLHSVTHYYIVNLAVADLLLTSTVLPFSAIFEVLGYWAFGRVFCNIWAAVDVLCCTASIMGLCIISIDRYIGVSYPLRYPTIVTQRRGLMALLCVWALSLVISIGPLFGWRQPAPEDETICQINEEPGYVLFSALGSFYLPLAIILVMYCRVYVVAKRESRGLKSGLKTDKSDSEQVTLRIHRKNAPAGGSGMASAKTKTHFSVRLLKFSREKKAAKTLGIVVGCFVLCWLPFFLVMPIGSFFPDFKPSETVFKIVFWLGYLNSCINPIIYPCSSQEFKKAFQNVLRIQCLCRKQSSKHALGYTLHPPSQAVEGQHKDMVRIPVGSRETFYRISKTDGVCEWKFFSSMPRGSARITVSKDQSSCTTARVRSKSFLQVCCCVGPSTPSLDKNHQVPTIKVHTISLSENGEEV

[8] = molecular target: T5, Peroxisome proliferator-activated receptor gamma (Homo sapiens, UniProt P37231); format: functional
T5 sequence (P37231 whole entry): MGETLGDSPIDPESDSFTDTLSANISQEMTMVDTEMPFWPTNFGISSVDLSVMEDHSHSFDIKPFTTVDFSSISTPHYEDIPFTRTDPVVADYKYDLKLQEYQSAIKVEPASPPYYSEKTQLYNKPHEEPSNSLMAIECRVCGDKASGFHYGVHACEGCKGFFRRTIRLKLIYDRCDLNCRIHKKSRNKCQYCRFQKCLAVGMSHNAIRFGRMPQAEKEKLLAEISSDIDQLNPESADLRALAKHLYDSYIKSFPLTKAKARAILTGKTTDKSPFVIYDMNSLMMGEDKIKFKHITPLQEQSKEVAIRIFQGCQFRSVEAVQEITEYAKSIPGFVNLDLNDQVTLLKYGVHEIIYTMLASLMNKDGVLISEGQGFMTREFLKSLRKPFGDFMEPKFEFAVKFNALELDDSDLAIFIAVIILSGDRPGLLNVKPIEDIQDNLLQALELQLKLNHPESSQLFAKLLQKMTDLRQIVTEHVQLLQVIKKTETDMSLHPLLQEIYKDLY

[9] = molecular target: Gamma-aminobutyric acid receptor subunit alpha-1/alpha-2/beta-2/gamma-2 (Homo sapiens, UniProt P14867+P18507+P47869+P47870); format: functional, cell-based
Gamma-aminobutyric acid receptor subunit alpha-1/alpha-2/beta-2/gamma-2, sequence (P14867 whole entry): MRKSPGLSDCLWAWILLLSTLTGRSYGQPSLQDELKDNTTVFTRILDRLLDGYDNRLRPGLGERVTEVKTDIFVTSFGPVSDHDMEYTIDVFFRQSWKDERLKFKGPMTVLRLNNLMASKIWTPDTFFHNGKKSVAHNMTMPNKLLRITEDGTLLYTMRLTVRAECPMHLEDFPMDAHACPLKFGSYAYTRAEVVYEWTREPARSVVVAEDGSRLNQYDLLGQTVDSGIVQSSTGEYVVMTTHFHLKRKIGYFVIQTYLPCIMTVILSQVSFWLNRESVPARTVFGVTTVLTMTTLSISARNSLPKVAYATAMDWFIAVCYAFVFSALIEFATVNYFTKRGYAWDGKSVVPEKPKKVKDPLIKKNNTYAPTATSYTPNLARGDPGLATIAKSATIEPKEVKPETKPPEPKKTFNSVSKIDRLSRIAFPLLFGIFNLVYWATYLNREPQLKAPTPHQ
Gamma-aminobutyric acid receptor subunit alpha-1/alpha-2/beta-2/gamma-2, sequence (P47870 whole entry): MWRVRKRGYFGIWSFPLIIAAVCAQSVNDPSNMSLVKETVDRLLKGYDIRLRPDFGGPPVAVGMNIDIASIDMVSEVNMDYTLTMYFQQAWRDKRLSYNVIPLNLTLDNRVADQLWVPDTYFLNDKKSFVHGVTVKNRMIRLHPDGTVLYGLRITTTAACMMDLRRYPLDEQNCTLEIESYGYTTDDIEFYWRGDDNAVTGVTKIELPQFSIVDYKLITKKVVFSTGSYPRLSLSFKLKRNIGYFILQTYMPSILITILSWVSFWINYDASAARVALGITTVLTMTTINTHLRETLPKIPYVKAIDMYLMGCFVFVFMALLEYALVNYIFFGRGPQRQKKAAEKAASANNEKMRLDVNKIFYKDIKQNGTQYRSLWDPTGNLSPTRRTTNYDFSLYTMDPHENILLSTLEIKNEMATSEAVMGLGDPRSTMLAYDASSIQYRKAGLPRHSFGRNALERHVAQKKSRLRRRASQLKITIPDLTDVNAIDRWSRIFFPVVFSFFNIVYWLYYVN
Gamma-aminobutyric acid receptor subunit alpha-1/alpha-2/beta-2/gamma-2, sequence (P18507 whole entry): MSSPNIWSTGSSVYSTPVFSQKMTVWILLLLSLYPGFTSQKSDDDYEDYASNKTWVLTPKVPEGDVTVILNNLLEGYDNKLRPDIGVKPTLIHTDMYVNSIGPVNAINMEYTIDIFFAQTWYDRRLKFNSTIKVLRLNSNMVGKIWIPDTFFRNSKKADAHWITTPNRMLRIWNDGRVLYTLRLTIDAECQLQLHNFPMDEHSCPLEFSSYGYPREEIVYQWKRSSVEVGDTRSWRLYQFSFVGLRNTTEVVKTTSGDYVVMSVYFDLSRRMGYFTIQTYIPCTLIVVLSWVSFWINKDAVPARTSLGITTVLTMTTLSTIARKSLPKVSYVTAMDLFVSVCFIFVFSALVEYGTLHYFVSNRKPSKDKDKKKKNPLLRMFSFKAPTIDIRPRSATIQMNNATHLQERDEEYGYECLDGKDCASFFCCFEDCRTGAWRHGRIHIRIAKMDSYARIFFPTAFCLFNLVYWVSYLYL
Gamma-aminobutyric acid receptor subunit alpha-1/alpha-2/beta-2/gamma-2, sequence (P47869 whole entry): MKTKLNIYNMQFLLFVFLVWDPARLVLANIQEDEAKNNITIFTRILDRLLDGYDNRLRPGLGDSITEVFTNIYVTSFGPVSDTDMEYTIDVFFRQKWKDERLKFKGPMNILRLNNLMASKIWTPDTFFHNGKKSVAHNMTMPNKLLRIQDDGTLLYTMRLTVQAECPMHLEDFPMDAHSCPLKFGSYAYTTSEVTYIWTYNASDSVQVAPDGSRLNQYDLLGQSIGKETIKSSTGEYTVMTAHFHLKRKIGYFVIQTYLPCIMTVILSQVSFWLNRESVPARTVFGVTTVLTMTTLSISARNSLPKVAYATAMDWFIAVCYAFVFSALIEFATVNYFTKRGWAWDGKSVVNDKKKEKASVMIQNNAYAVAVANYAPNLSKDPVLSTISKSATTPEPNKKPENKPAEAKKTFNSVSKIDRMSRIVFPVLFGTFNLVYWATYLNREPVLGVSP
Further: assay procedure not described here.

Compound	AC50 [1] [µM]	AC50 [2] [µM]	AC50 [3] [µM]	AC50 [4] [µM]	AC50 [5] [µM]	AC50 [6] [µM]	AC50 [7] [µM]	AC50 [8] [µM]	AC50 [9] [µM]
NC(N)=Nc1nc(CSCCC(N)=NS(N)(=O)=O)cs1 [FAMOTIDINE]	> 30	> 30	0.0063	> 30	> 30	> 30	> 10	–	–
NS(=O)(=O)c1cc2c(cc1Cl)NCNS2(=O)=O [HYDROCHLOROTHIAZIDE]	> 30	> 30	> 10	> 30	> 30	> 30	> 10	–	–
CC(C)NNC(=O)c1ccncc1 [IPRONIAZID]	–	–	–	–	–	–	–	> 30	–
CCN(CC)CCNC(=O)c1cc(Cl)c(N)cc1OC [METOCLOPRAMIDE]	> 30	> 30	> 10	> 30	> 30	> 30	> 10	–	–
Cc1cccc(C)c1OCC(C)N (centres undefined) [MEXILETINE]	–	–	–	–	–	–	–	> 30	–
CCc1nn(CCCN2CCN(c3cccc(Cl)c3)CC2)c(=O)n1CCOc1ccccc1 [NEFAZODONE]	> 30	> 30	–	> 30	> 30	> 30	0.13	–	–
NC1=NC(=O)C(c2ccccc2)O1 (centres undefined) [PEMOLINE]	–	> 30	–	–	–	–	–	–	–
CCc1ccc(CCOc2ccc(CC3SC(=O)NC3=O)cc2)nc1 (centres undefined) [PIOGLITAZONE]	> 30	> 30	> 10	> 30	> 30	> 30	> 10	–	–
CC(C(=O)O)c1ccc(N2CC=CC2)c(Cl)c1 (centres undefined) [PIRPROFEN]	> 30	> 30	> 10	> 30	> 30	> 30	> 10	–	–
CC[C@H](C)C(=O)O[C@H]1C[C@H](O)C=C2C=C[C@H](C)[C@H](CC[C@@H](O)C[C@@H](O)CC(=O)O)[C@H]21 [PRAVASTATIN]	–	–	–	–	–	–	–	> 30	–
NC(=O)c1cnccn1 [PYRAZINAMIDE]	> 30	> 30	> 10	> 30	> 30	> 30	> 10	–	–
O=C(NC[C@H]1CN(c2ccc(N3CCOCC3=O)cc2)C(=O)O1)c1ccc(Cl)s1 [RIVAROXABAN]	–	–	–	–	–	–	–	–	> 30
O=C(CCCCCCC(=O)Nc1ccccc1)NO [VORINOSTAT]	> 10	–	> 10	> 10	–	> 10	> 10	–	> 30
